Data on one molecule can be found in PMC10177447, “4-[(5-Methyl-1H-pyrazol-3-yl)amino]-2H-phenyl-1-phthalazinone Inhibits MCPyV T Antigen Expression in Merkel Cell Carcinoma Independent of Aurora Kinase A” (Cancers, 2023).

This experiment concerns the target GSK3b (Homo sapiens, UniProt P49841). The experiment can be described thus: commercial GSK3 kinase assay (Promega) with ADP-Glo luminescence readout, dose-response. The class given is biochemical. In general terms: In ADP-Glo the light output rises with the ADP produced.

SMILES strings stand for the structures.

Broadly, the IC50 is the point on the concentration scale where inhibition reaches its midpoint. Low values mean inhibition by little substance, high ones a need for much substance.

GSK3b, sequence (P49841 whole entry): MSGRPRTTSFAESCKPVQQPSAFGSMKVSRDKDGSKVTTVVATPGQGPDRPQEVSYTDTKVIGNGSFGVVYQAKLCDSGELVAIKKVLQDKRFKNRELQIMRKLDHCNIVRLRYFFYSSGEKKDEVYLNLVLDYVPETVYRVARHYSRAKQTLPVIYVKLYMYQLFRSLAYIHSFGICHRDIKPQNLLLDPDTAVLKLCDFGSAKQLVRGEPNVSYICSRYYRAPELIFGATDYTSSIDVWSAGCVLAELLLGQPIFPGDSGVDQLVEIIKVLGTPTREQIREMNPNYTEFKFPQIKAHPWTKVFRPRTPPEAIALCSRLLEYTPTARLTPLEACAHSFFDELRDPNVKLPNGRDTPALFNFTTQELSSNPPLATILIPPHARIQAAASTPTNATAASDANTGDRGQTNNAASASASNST

In the case of `Cc1cc(Nc2nn(-c3ccccc3)c(=O)c3ccccc23)n[nH]1` [PHT, 4-[(5-methyl-1H-pyrazol-3-yl)amino]-2H-phenyl-1-phthalazinone], inhibition was half-maximal at 0.029 µM (IC50).
